What is called IC50 is the concentration needed to halve the response being measured. Higher therefore signals weaker potency in that assay.

Data on nine substances can be found in patent US20090186864A1, “RUTHENIUM (II) COMPOUNDS” (priority 2006, published 2009).

Where only a bound is given, the exact number is not on record here.

For experiment [1], the system named is A2780 ovarian cancer cell line. The experiment is described as follows: Cytotoxicity against A2780 ovarian cancer cell line (Coulter counter cell count, Example 10). It is filed as cell-based, human. To be noted: 24 hours exposure, further 72 h growth, stock solutions in deionised water. As to the method: Some compounds were tested for cytotoxicity against the A2780 ovarian cancer cell line as follows.
(§1) The human ovarian cells were added at a density of 1×10^4 cells per well to 24-well tissue culture trays (Falcon Plastic, Becton Dickenson, Lincon Park, N.J., USA) and allowed to grow for 72 hours before addition of the Ru(II) arene complexes. Stock solutions of the ruthenium compounds were made up fresh in deionised water and sonicated to ensure complete dissolution. These stock solutions were diluted with media to give final concentrations ranging between 0.1 and 100 μM. All compounds were evaluated at each concentration in duplicate wells, and complete assays were repeated a minimum of three times. Cisplatin or carboplatin was employed as a positive and comparative control in each experiment. After 24 hours exposure the drug-containing medium was removed, the cells washed with phosphate buffered saline (PBS) and fresh medium was added. Cell number was assessed after a further 72 h growth using s Coulter counter (Coulter Electronics Ltd, Luton, UK) and the IC50 values (concentration of drug causing 50% growth inhibition) calculated by linear regression analysis comparing the inhibitory effects of the drugs against the growth of untreated cells.

The next experiment deals with A2780 cancer cell line. The experiment is described as follows: Inhibitory growth activity against A2780 cancer cell line (sulforhodamine B assay, Example 11). It is filed as cell-based, human. To be noted: 24 hours exposure, 96 hours recovery, 0.5% DMSO. As to the method: (§2) Other compounds were tested for inhibitory growth activity against the A2780 and A549 cancer cell lines as follows. Each drug was tested for activity at six different concentrations (100 μM, 50 μM, 10 μM, 5 μM, 1 μM and 0.1 μM) and each concentration was tested in triplicate, relative to a cisplatin control.
(§3) The A2780 cancer cell line was maintained by growing the cells in RPMI media supplemented with 5% fetal bovine serum, 1% penicillin/streptomycin and 2 mM L-glutamine. The cells were split when approximately 70-80% confluence were reached using 0.25% trypsin/EDTA. The cells were kept incubated at 37° C., 5% CO2, high humidity. The A549 cancer cell line was maintained by growing the cells in DMEM media supplemented with 10% fetal bovine serum, 1% penicillin/streptomycin and 2 mM L-glutamine. The cells were split when approximately 70-80% confluence were reached using 0.25% trypsin/EDTA. The cells were kept incubated at 37° C., 5% CO2, high humidity.
(§4) A2780 cancer cells were plated out at 5000 cells/well (±10%) on day one. A549 cancer cells were plated out at 2000 cells/well (±10%) on day two. On day three the test compound was dissolved in DMSO to give a stock solution of 20 mM and serial dilutions were carried out in DMSO to give concentrations of drug in DMSO of 10 mM, 2 mM, 1 mM, 0.2 mM and 0.02 mM. These were added to the wells to give the six testing concentrations and a final concentration of DMSO as 0.5% (v/v) with a total volume of drugs and media to be 200 μl. The cells were exposed to the drug for 24 hours then, after drug removal, fresh media was given and the cells were incubated for 96 hours recovery time. The remaining biomass was estimated by the sulforhodamine B assay. The cells were then fixed using 50 μl 50% (w/v) TCA and incubated at 4° C. for one hour. The biomass was stained with 100 μl 0.4% (w/v) sulforhodamine B in 1% acetic acid.
(§5) The dye was solubilised with Tris Buffer and the absorbance was read using a BMG Fluostar microplate reader at 595 nm. A baseline correction at 690 nm was subtracted from the values. The absorbance for 100% cell survival was based on the average absorbance for the 0.1 μM dosed triplicate for that drug. IC50 values were calculated using XL-Fit version 4.0.

In the next experiment the test system is A549 cancer cell line. The experiment is described as follows: Inhibitory growth activity against A549 cancer cell line (sulforhodamine B assay, Example 11). It is filed as cell-based. As to conditions: 24 hours exposure, 96 hours recovery, 0.5% DMSO. As to the method:
as §2, §3, §4, §5
A general note: The SRB assay estimates cell density from bound dye.

In experiment [2] the test system is cisplatin resistant cell line (A2780^cis). The experiment is described as follows: Cytotoxicity against cisplatin resistant cell line A2780cis (Example 10). The class given is cell-based, human. Here is the method: as §1

Consider “[(η-indan)Ru(2,9-Me2-phen-N,N)Cl]PF6 [Compound 3]”, for which the IC50 in experiment [1] is above 50 µM.

In the case of “[(η^6-DHA)Ru(bipydiol-N,N—H)Cl] [Compound 5]”, the values for the IC50 in the experiment with A2780 cancer cell line and with A549 cancer cell line were 16.7 µM and 38.4 µM, respectively.

As to “[(η^6-THA)Ru(bipydiol-N,N—H)Cl] [Compound 4]”, the IC50 was 7.9 µM with A2780 cancer cell line and 21 µM in the experiment on A549 cancer cell line.

Take “[(η^6-THN)Ru(bipydiol-N,N—H)Cl] [Compound 6]”: the IC50 in the experiment on A2780 cancer cell line is 7.3 µM; in the experiment with A549 cancer cell line, 23.6 µM.

As for “[(η^6-biph)RuCl(bipy(OH)O^−)] [Compound 8]”, in the experiment on A2780 cancer cell line, it took 40 µM to reach half-maximal inhibition (IC50).

Regarding “[(η^6-bz)RuCl(bipy(OH)O^−)] [Compound 7]”, the midpoint of inhibition in the experiment on A2780 cancer cell line, the IC50, lay at 65 µM.

Consider “[(η^6-indan)Ru(phenanthroline-N,N)Cl]PF6 [Compound 2]”, for which, in experiment [1], the IC50 was 52 µM.

In the case of “[(η^6-indan)RuCl(bipydiol-N,N)Cl] [Compound 1]”, the IC50 in experiment [1] is 3 µM; in experiment [2] (A2780cis cisplatin resistant cell line), 2.1 µM; in the experiment with A2780 cancer cell line, 17.6 µM; with A549 cancer cell line, 39 µM. Further, the fold resistance in experiment [2] (A2780cis versus A2780) is recorded as 0.7 fold.

Consider “[(η^6-p-terp)RuCl(bipy(OH)O—)] [Compound 9]”, for which the figures for the IC50 in the experiment with A2780 cancer cell line and in the experiment on A549 cancer cell line were 21 µM and 62 µM, respectively.
